Assays:
[1] = test system: glioblastoma U87 MG tumors; assay: Invasion of glioblastoma tumor graft into chicken embryo chorioallantoic membrane (CAM) mesenchyme; type: in vivo; settings: control 90.9%
Procedure: Synergistic effect of VPA and DCA on glioblastoma tumor (GB) graft on chicken embryo chorioallantoic membrane (CAM). […] Invasion into the CAM mesenchyme was detected in 50% of cases with 10 mM NaDCA treatment of GB (A-b and B). […] The incidence of invasion into the CAM mesenchyme was 9.1% in the group treated with the combination of 4 mM VPA and 5 mM DCA (A-c and B).
A - morphological changes of the chorioallantoic membrane in the groups studied: a - tumor formed from glioblastoma U87 MG cells; GB injured the integrity of the chorionic epithelium (ChE) (indicated by arrows) and invaded the CAM mesenchyme; b - GB treated with 10 mM NaDCA; no invasion of the CAM mesenchyme was detected, ChE injury already started (location marked with an arrow); c - GB treated with a combination of 4 mM VPA and 5 mM DCA; GB formed on the CAM surface, ChE integrity damaged (location marked with an arrow), CAM thinned (scale - 200 µm). […] C - fluorescence biomicroscopy of angiogenesis on the 5th day after tumor transplantation on CAM: a - untreated GB tumors, b - GB-4 mM VPA-5 mM DCA group; VPA-DCA treated tumor fluorescence is weaker compared to the control group tumor; a and b-a short arrow indicates the blood vessels attracted by the tumor, long arrow indicates a tumor (scale - 1 mm).

[2] = aqueous solution; cited from earlier work

O=C([O-])C(Cl)Cl.[Na+] [NaDCA, Sodium dichloroacetate]
Invasion into the CAM mesenchyme (cases) ([1]; 10 mM NaDCA, n = 14): 50%

CCCC(CCC)C(=O)O [valproic acid, 2-propyl-pentanoic acid]
ionization equilibrium constant Kr [2]: 2.2·10^-5

Magnesium dichloroacetate [MgDCA]
Invasion rate ([1]; 5 mM MgDCA, n = 7): 14.3%
